Measurements: article PMC7259601 (PLoS ONE, 2020)
Read-outs that look alike come from different tables or passages of the source.

Legend:
[1] = molecular target: T1, Mouse recombinant SMOX (Mus musculus, UniProt Q99K82); test: SMOX inhibition assay; type: biochemical
T1 construct: gift: Paolo Mariottini, Department of Biology, University of Roma
Experimental: Mouse recombinant SMOX [4] was provided by Paolo Mariottini (Department of Biology, University of Roma). The biochemical activity was measured by its ability to oxidize spermine (specific substrate for SMOX) and produce H2O2 using a horseradish peroxidase coupled assay. The assay buffer for the mSMOX reaction was 100 mM Sodium Phosphate pH 8.0. The inhibition was monitored during 10 min in the presence of KM spermine peptide.

[2] = molecular target: T2, rKDM1A (Homo sapiens, UniProt O60341); test: Kinetics of inhibition of KDM1A; type: biochemical; details: pure recombinant enzyme, H3K4me2 peptide
T2 construct: purchased BPS Bioscience 50100
Experimental: Time course experiments were performed to assess the rate of inhibition of demethylation of a H3K4me2 peptide mediated by rKDM1A, monitoring the release of H2O2 produced during the reaction using a coupled horseradish peroxidase assay using Amplex Red reagent as a substrate. Conditions were the same as for IC50 determinations, but all reagents were added simultaneously.

[3] = Mouse pharmacokinetics; type: in vivo, BALB/c mice; details: for AUC(0-inf): read-out: Plasma AUCinf; for AUC(0-t): read-out: Plasma AUClast
Experimental: Temperature and humidity were maintained at 22 ± 3 °C and 40-70 %, respectively and illumination was controlled to give a sequence of 12 hr light / dark cycle. The temperature and humidity were recorded by auto-controlled data logger system. All the animals were acclimatized to the experimental conditions for at least three days prior to dosing. All the animals were provided laboratory rodent diet (Vetcare India Pvt. Ltd, Bengaluru) except for overnight before treatment and 2 hr post dose. Reverse osmosis water treated with ultraviolet light was provided ad libitum. Blood samples were collected at 0, 0.05, 0.16, 0.5, 1, 2, 4, 8 & 24 hr for IV and for PO at 0, 0.25, 0.5, 1, 2, 4, 6, 8 and 24 hr post dosing. Each mouse was assigned to one of 3 subgroups and sampled at 3 timepoints. Animals were euthanized by using excess CO2 asphyxiation. The study was conducted at Sai Life Sciences Limited, Pune, India, in accordance with the guidelines of the Institutional Animal Ethics Committee (IAEC) and in accordance with the requirement of Committee for the Purpose of Control and Supervision of Experiments on Animals (CPCSEA), India. Prior approval was obtained before initiation of the study (IAEC Protocol No. IAEC/PRT/012-10; IAEC-CPCSEA).
Plasma was harvested from the blood samples harvested in K2EDTA containing tubes by centrifugation at 4000 rpm for 10 min at 4 ± 2 °C and stored below -70 °C until bioanalysis. Brain tissue was homogenized with phosphate buffer saline (pH 7.4). Total homogenate volume was thrice the tissue weight. All samples were processed for analysis by precipitation using Imipramine as internal standard and analyzed with partially validated LC-MS/MS method. Pharmacokinetic parameters were calculated using the non-compartmental analysis tool of WinNonlin® Enterprise software (Pharsight Corp., USA; version 5.2).
Compound levels from 3 samples per timepoint (for a given dose and route of administration), were used to calculated pharmacokinetic parameters using the non-compartmental analysis tool of WinNonlin® Enterprise software (Pharsight Corp., USA; version 5.2).

[4] = molecular target: brain MAO-A (Mus musculus, UniProt Q64133); test: in vivo
Chain of brain MAO-A (Q64133 whole entry): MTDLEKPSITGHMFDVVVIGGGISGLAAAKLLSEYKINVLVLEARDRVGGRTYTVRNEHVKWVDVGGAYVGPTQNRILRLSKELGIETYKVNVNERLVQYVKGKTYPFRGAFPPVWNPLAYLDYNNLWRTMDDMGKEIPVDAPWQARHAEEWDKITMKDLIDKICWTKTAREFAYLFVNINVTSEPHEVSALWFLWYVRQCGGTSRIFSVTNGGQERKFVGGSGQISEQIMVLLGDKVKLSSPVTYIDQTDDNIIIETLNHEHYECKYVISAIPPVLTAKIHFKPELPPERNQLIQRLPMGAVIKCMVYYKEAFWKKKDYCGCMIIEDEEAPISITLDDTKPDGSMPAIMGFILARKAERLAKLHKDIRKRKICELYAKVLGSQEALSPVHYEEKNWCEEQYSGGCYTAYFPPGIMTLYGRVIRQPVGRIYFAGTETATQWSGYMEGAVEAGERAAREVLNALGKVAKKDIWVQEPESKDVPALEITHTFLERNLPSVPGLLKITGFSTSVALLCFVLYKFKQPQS
Experimental: Male CD1 mice (8 weeks of age, 25-30 g) procured from Charles River were housed in the same conditions as in Ex vivo assay of MAO-A inhibition section.
Ex-vivo MAO-A activity was measured essentially as previously described . […] Brain samples were weighed and then thawed and homogenised in 20 volumes of homogenisation buffer after which MAO-A activity was measured. […] Enzyme activity was corrected by subtracting an assay buffer blank and initially expressed in units of nmoles substrate/min. The protein concentration of the homogenates was measured and used to express final enzyme activity in units of nmoles/min/mg protein. All results are expressed as a mean of duplicate determinations. Brains from animals treated acutely were assayed on a different day to those treated for 5 days (chronically).
MAO-A activity was determined using serotonin creatinine sulphate [2-^14C] as outlined above. Raw enzyme activity values (in nmoles substrate/min) were corrected by subtracting an assay buffer blank and were normalized to the total protein concentration (in nmoles/min/mg protein). All results are means of duplicate determinations. Different drug treatments were compared by Oneway-ANOVA with Dunnett analysis.

[5] = tested on: 19 epigenetic targets; test: Panel of 19 epigenetic targets; type: biochemical; details: 10 μM
Experimental: (§1) […]. MAO-A inhibition at 10 μM was 37%, in line with internal data.

[6] = tested on: I2 (antagonist radioligand); test: CEREP Diversity Panel; type: binding; design: % inhibition: dose or concentration left out as unconfirmed
Experimental: as §1

[7] = tested on: M (non-selective) (antagonist radioligand); test: CEREP Diversity Panel; type: binding; design: % inhibition: dose or concentration left out as unconfirmed
Experimental: as §1

[8] = male, mouse, plasma, BALB/c mice, intravenous 2 mg/kg
[9] = male, mouse, plasma, BALB/c mice, oral 10 mg/kg

T1 sequence (Q99K82 whole entry): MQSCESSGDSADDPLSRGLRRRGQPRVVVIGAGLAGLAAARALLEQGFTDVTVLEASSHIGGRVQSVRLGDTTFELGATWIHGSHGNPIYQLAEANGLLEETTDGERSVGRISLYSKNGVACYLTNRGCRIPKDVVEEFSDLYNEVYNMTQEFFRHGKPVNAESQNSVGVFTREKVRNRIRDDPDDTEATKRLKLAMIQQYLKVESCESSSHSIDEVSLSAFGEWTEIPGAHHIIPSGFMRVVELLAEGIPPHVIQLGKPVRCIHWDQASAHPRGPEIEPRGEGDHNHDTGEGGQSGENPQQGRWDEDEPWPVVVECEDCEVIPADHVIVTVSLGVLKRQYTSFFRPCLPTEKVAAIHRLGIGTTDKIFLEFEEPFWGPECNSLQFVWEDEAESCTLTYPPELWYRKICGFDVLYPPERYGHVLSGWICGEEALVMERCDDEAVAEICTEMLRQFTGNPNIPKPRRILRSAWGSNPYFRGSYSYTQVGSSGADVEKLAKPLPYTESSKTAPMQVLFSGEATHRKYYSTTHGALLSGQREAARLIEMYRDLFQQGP

Compound: Nc1nnc(CN[C@@H]2C[C@H]2c2ccc(OCc3ccccc3)cc2)o1 [ORY-2001, vafidemstat]
- inhibition at 10 µM [1]: 31%
- KI (inactivation) [2]: 1800 nM
- Brain Cmax ([3]; BALB/c mice, oral 10 mg/kg): 5804 ng/g
- Fpo ([3]; BALB/c mice, oral 10 mg/kg): 75%
- AUC ([3]; male, mouse, plasma, po, Balb/c mice, p.o. 10 mg/kg, read-out: area-under-the-curve (AUC) (converted)): 17200 ng·h/mL
- clearance [3, 8]: 6.8 mL/min/kg
- half-life [3, 8]: 2.05 h
- AUC(0-inf) [3, 8]: 4880 ng·h/mL
- AUC(0-t) [3, 8]: 4570 ng·h/mL
- Vd ([3]; male, mouse, plasma, BALB/c mice, intravenous 2 mg/kg, read-out: Vss): 1.1 L/kg
- Cmax [3, 9]: 4160 ng/mL
- Tmax [3, 9]: 0.25 h
- half-life [3, 9]: 2.22 h
- AUC(0-inf) [3, 9]: 17200 ng·h/mL
- AUC(0-t) [3, 9]: 17200 ng·h/mL
- ex vivo brain MAO-A inhibition, acute setting ([4]; mice, acute 1 to 100 mg/kg p.o. gavage): only the 100 mg/kg dose led to a significant inhibition
- ED50 ([4]; mouse, po, read-out: ED50 ex vivo brain MAO-A inhibition): ~10 mg/kg
- % inhibition, any of 19 epigenetic targets [5]: ≤ 15%
- % inhibition [6]: 71%
- I2 imidazoline receptor inhibition of ligand binding ([6]; 10 μM): 71%
- % inhibition [7]: 1%
- muscarinic receptor antagonist (MRA) activity [7]: not an MRA
